Laboratory results: ChEMBL document CHEMBL5518181, “Studies of antibacterial activity (in vitro and in vivo) and mode of action for des-acyl tridecaptins (DATs)” (Eur J Med Chem, 2024)
Converted amounts (≈) assume the structure as drawn.

Assays:
Klebsiella pneumoniae [1] = assay: Antibacterial activity against wild-type Klebsiella pneumoniae ATCC 13883 assessed as inhibition of bacterial growth incubated for 18 hrs; type: functional; details: read-out: MIC100
Escherichia coli [2] = assay: Antibacterial activity against wild-type Escherichia coli ATCC 25922 assessed as inhibition of bacterial growth incubated for 18 hrs; type: functional; details: read-out: MIC100
Lipopolysaccharide (LPS) = assay: Binding affinity to Escherichia coli O55:B5 LPS assessed as dissociation constant by ITC analysis; type: subcellular
[3] = Cytotoxicity against human HepG2 cells incubated for 40 hrs by celltiter-glo luminescent cell viability assay; type: toxicity, cell-based
[4] = Hemolytic activity in human red blood cells at 400 ug/ml incubated for 45 mins by spectrophotometric analysis relative to control; type: toxicity, cell-based, Erythrocyte; details: red blood cells (erythrocytes), at 400 µg/mL, read-out: Activity
[5] = Binding affinity to gram negative bacterial lipid II assessed as dissociation constant by ITC analysis; parameters: species or system Bacteria
Escherichia coli [6] = assay: Antibacterial activity against Escherichia coli ATCC 25922 harboring hldE knock-out assessed as inhibition of bacterial growth incubated for 18 hrs; type: functional; details: read-out: MIC100
Escherichia coli [7] = assay: Antibacterial activity against wild-type Escherichia coli ATCC 25922 assessed as inhibition of bacterial growth incubated for 18 hrs in presence of 50% heat inactivated human serum; type: functional; details: read-out: MIC100
Staphylococcus aureus [8] = assay: Antibacterial activity against […] assessed as inhibition of bacterial growth incubated for 18 hrs; type: functional; details: ATCC 29213, read-out: MIC100
Escherichia coli [9] = assay: Antibacterial activity against Escherichia coli ATCC 25922 harboring tolC knock-out assessed as inhibition of bacterial growth incubated for 18 hrs; type: functional; details: read-out: MIC100
Acinetobacter baumannii = assay: Antibacterial activity against wild-type Acinetobacter baumannii ATCC 19606 assessed as inhibition of bacterial growth incubated for 20 hrs; type: functional; details: read-out: MIC100
[10] = Hydrophobicity of compound assessed as %MeCN at peak elution by RP-HPLC analysis; type: physicochemical
Klebsiella pneumoniae [11] = assay: Antibacterial activity against wild-type Klebsiella pneumoniae ATCC 13883 assessed as inhibition of bacterial growth incubated for 18 hrs in presence of 50% heat inactivated human serum; type: functional; details: read-out: MIC100
Escherichia coli [12] = assay: Antibacterial activity against wild-type Escherichia coli ATCC 25922 assessed as inhibition of bacterial growth by measuring fold increase in MIC incubated for 18 hrs in presence of 50% heat inactivated human serum relative to control; type: functional
Pseudomonas aeruginosa [13] = assay: Antibacterial activity against wild-type Pseudomonas aeruginosa PAO1 assessed as inhibition of bacterial growth incubated for 24 hrs; type: functional; details: read-out: MIC100
Escherichia coli [14] = assay: Antibacterial activity against colistin resistant Escherichia coli NCTC 13846 harboring mcr-1 gene assessed as inhibition of bacterial growth incubated for 18 hrs; type: functional; details: read-out: MIC100
Klebsiella pneumoniae [15] = assay: Antibacterial activity against Klebsiella pneumoniae ATCC 43816 assessed as inhibition of bacterial growth incubated for 18 hrs; type: functional; details: read-out: MIC100
Morganella morganii = assay: Antibacterial activity against Morganella morganii ATCC 25830 assessed as inhibition of bacterial growth incubated for 18 hrs; type: functional; details: read-out: MIC100
Staphylococcus aureus [16] = assay: Antibacterial activity against wild type Staphylococcus aureus USA300 assessed as inhibition of bacterial growth incubated for 18 hrs; type: functional; details: read-out: MIC100
Klebsiella aerogenes = assay: Antibacterial activity against Enterobacter aerogenes ATCC 13048 assessed as inhibition of bacterial growth incubated for 18 hrs; type: functional; details: read-out: MIC100
Escherichia coli [17] = assay: Antibacterial activity against Escherichia coli Swiss 9 harboring mcr-1 gene assessed as inhibition of bacterial growth incubated for 18 hrs; type: functional; details: read-out: MIC100
Salmonella typhimurium = assay: Antibacterial activity against Salmonella typhimurium ATCC 13311 assessed as inhibition of bacterial growth incubated for 18 hrs; type: functional, Salmonella enterica subsp. enterica serovar Typhimurium; details: Salmonella enterica, read-out: MIC100
Serratia marcescens = assay: Antibacterial activity against intrinsically colistin resistant Serratia marcescens ATCC 13880 assessed as inhibition of bacterial growth incubated for 18 hrs; type: functional; details: read-out: MIC100
Proteus mirabilis = assay: Antibacterial activity against Proteus mirabilis ATCC 25933 assessed as inhibition of bacterial growth incubated for 18 hrs; type: functional; details: read-out: MIC100
Providencia stuartii = assay: Antibacterial activity against Providencia stuartii ATCC 25826 assessed as inhibition of bacterial growth incubated for 18 hrs; type: functional; details: read-out: MIC100
Escherichia coli [18] = assay: Antibacterial activity against Escherichia coli Swiss 7 harboring mcr-1 gene assessed as inhibition of bacterial growth incubated for 18 hrs; type: functional; details: read-out: MIC100
Escherichia coli [19] = assay: Antibacterial activity against Escherichia coli ATCC BAA-2469 expressing NDM-1 assessed as inhibition of bacterial growth incubated for 18 hrs; type: functional; details: read-out: MIC100
Klebsiella pneumoniae [20] = assay: Antibacterial activity against Klebsiella pneumoniae ATCC BAA-2470 expressing NDM-1 assessed as inhibition of bacterial growth incubated for 18 hrs; type: functional; details: read-out: MIC100
Pseudomonas aeruginosa [21] = assay: Antibacterial activity against efflux-deficient Pseudomonas aeruginosa PAO750 assessed as inhibition of bacterial growth incubated for 18 hrs; type: functional; details: read-out: MIC100
Citrobacter freundii = assay: Antibacterial activity against Citrobacter freundii ATCC 8090 assessed as inhibition of bacterial growth incubated for 18 hrs; type: functional; details: read-out: MIC100

Compound	MIC (Klebsiella pneumoniae [1]) [µg/mL]	MIC (Escherichia coli [2]) [µg/mL]	Kd (Lipopolysaccharide (LPS)) [µM]	IC50 at 40 h [3] [µg/mL]	hemolysis at 0.75 h, 400 ug/ml [4] [%]	Kd [5] [µM]	MIC (Escherichia coli [6]) [µg/mL]	MIC (Escherichia coli [7]) [µg/mL]	MIC (Staphylococcus aureus [8]) [µg/mL]	MIC (Escherichia coli [9]) [µg/mL]	MIC (Acinetobacter baumannii) [µg/mL]	MeCN percentage at peak elution [10] [%]	MIC (Klebsiella pneumoniae [11]) [µg/mL]	fold change (FC) (Escherichia coli [12])	MIC (Pseudomonas aeruginosa [13]) [µg/mL]	other results
CC[C@@H](C)[C@@H](NC(=O)[C@@H](NC(=O)[C@H](CCC(=O)O)NC(=O)[C@H](Cc1ccccc1)NC(=O)[C@@H](CCN)NC(=O)[C@H](CCN)NC(=O)[C@H](CO)NC(=O)[C@@H](Cc1c[nH]c2ccccc12)NC(=O)[C@@H](CO)NC(=O)CNC(=O)[C@@H](CCN)NC(=O)[C@H](N)C(C)C)C(C)C)C(=O)N[C@@H](C)C(N)=O	64 (≈ 45.9 µM)	16 (≈ 11.5 µM)	11.4	> 170	0.4	0.58										
CC[C@H](C)[C@@H](NC(=O)[C@@H](NC(=O)[C@H](CCC(=O)O)NC(=O)[C@H](Cc1c[nH]c2ccccc12)NC(=O)[C@@H](CCN)NC(=O)[C@H](CCN)NC(=O)[C@H](CO)NC(=O)[C@@H](Cc1c[nH]c2ccccc12)NC(=O)[C@@H](CO)NC(=O)CNC(=O)[C@@H](CCN)NC(=O)[C@H](NC(=O)[C@H](C)N)C(C)C)C(C)C)C(=O)N[C@@H](C)C(=O)O	1 (≈ 0.665 µM)	1 (≈ 0.665 µM)	14.8	151 (≈ 100 µM)	41.7	5.2										
CC[C@H](C)[C@@H](NC(=O)[C@@H](NC(=O)[C@H](CCC(=O)O)NC(=O)[C@H](Cc1ccccc1)NC(=O)[C@@H](CCN)NC(=O)[C@H](CCN)NC(=O)[C@H](CO)NC(=O)[C@@H](Cc1c[nH]c2ccccc12)NC(=O)[C@@H](CO)NC(=O)CNC(=O)[C@@H](CCN)NC(=O)[C@H](NC(=O)[C@H](C)N)C(C)C)C(C)(C)C)C(=O)N[C@@H](C)C(N)=O	8 (≈ 5.41 µM)	16 (≈ 10.8 µM)		> 170	6	2.15	> 64	2	> 64	0.5 (≈ 0.338 µM)	64 (≈ 43.3 µM)	41.8	0.125	8	> 64	
CC[C@H](C)[C@@H](NC(=O)[C@@H](NC(=O)[C@H](CCC(=O)O)NC(=O)[C@H](Cc1ccccc1)NC(=O)[C@@H](CCN)NC(=O)[C@H](CCN)NC(=O)[C@H](CO)NC(=O)[C@@H](Cc1c[nH]c2ccccc12)NC(=O)[C@@H](CO)NC(=O)CNC(=O)[C@@H](CCN)NC(=O)[C@H](NC(=O)CCCCCN)C(C)C)C(C)C)C(=O)N[C@@H](C)C(=O)O	32 (≈ 21.2 µM)	64 (≈ 42.4 µM)		> 170	3.5		8 (≈ 5.31 µM)	2	> 64	32 (≈ 21.2 µM)	64 (≈ 42.4 µM)	40.1	2	8	> 64	
O=C(O)c1cn(C2CC2)c2cc(N3CCNCC3)c(F)cc2c1=O [CIPROFLOXACIN]	0.032 (≈ 0.0966 µM)			> 170												MIC (Escherichia coli [14]): > 1 µg/mL; MIC (Klebsiella pneumoniae [15]): 0.003 µg/mL (≈ 0.00905 µM); MIC (Morganella morganii): 0.002 µg/mL (≈ 0.00604 µM); MIC (Staphylococcus aureus [16]): 1 µg/mL (≈ 3.02 µM); MIC (Klebsiella aerogenes): 0.008 µg/mL (≈ 0.0241 µM); MIC (Escherichia coli [17]): > 1 µg/mL; MIC (Salmonella typhimurium): 0.004 µg/mL (≈ 0.0121 µM); MIC (Serratia marcescens): 0.032 µg/mL (≈ 0.0966 µM); MIC (Proteus mirabilis): 0.016 µg/mL (≈ 0.0483 µM); MIC (Providencia stuartii): 0.016 µg/mL (≈ 0.0483 µM); MIC (Escherichia coli [18]): > 1 µg/mL; MIC (Escherichia coli [19]): > 1 µg/mL; MIC (Klebsiella pneumoniae [20]): > 1 µg/mL; MIC (Pseudomonas aeruginosa [21]): 0.004 µg/mL (≈ 0.0121 µM); MIC (Citrobacter freundii): 0.004 µg/mL (≈ 0.0121 µM)
